Results on eight compounds are retold here after US20210300926A1, “NEW BETA-LACTAMASE INHIBITORS TARGETING GRAM NEGATIVE BACTERIA” (priority 2017, published 2021).

Where two headings read alike, the source gives them in different places.

In one assay the target is T1, CTX-M-15 (Escherichia coli, UniProt Q9EXV5).
T1 construct: fragments of the β-lactamase genes encoding soluble enzymes, i.e. devoid of the signal peptides; made in house; host or cells: E. coli BL21 (DE3)
The assay can be described thus: Kinetic parameters of β-lactamase carbamoylation/de-carbamoylation (nitrocefin), CTX-M-15. Format: biochemical. The conditions noted are these: for Carbamoylation efficacy of β-lactamases by diazabicyclooctanes / De-carbamoylation rate constant k−2 for β-lactamase-diazabicyclooctane adducts: CTX-M-15, 20° C., nitrocefin 100 μM, MES pH 6.4; for activity against CTX-M-15 (in words): summary of Tables 1 and 2. The text has this: (§1) Plasmid and strain construction. For antibiotic susceptibility testing, the R-lactamase genes were cloned into the vector pTRC-99k, which is a derivative of pTRC99a (Pharmacia) obtained by replacing the β-lactamase resistance gene by a kanamycin resistance gene (Km, lacl, pTRC promoter, oriVcolEl; D. Mengin-Lecreulx, unpublished). Recombinant plasmids were introduced by electrotransformation into Escherichia coli Top10. For β-lactamase production, fragments of the β-lactamase genes encoding soluble enzymes, i.e. devoid of the signal peptides, were cloned into the vector pET-TEV generating translational fusions with a vector-encoded N-terminal 6×His Tag followed by a TEV cleavage site ([…]) (1).
(§2) Production and purification of β-lactamases. E. coli BL21 (DE3) harboring recombinant plasmids were grown in brain heart infusion (BHI) broth supplemented with kanamycin (50 μg/ml) at 37° C. under vigorous shaking until the optical density at 600 nm (OD600) reached 0.8. Isopropyl β-D-1-thiogalactopyranoside IPTG (0.5 mM) was added and incubation was continued at 16° C. for 18 h. Bacteria were harvested by centrifugation, re-suspended in 25 mM Tris-HCl (pH 7.5) containing 300 mM NaCl (buffer A) and lysed by sonication. The enzymes were purified from clarified lysates by affinity chromatography (NiNTA agarose, Sigma-Aldrich) and size exclusion chromatography in buffer A (Superdex 200 HL26/60, Amersham Pharmacia Biotech). Protein concentration was determined by the Biorad protein assay using bovine serum albumin as a standard.
(§3) Determination of kinetic parameters. […] Briefly, the initial velocity (vi) was determined by spectrophotometry for various concentrations of β-lactams [S] and a fixed concentration of β-lactamase [E]. The values of vi were plotted as a function of [S]. The kinetic constants Km and kcat were determined by fitting the equation […] to the resulting curve. The molecular extinction coefficient was 14,600 M^−1 cm^−1 at 486 nm for nitrocefin. […] Kinetics constants were deduced from a minimum of 6 progress curves obtained in a minimum of two independent experiments.

The subject of assay [1] is E. coli Top10 producing CTX-M15. The assay can be described thus: MIC determination by microdilution, E. coli Top10 producing CTX-M15. Format: cell-based, Escherichia coli. The conditions noted are these: for reduction in the MICs of β-lactams (in words): E. coli Top10 producing CTX-M-15, summary of Table 1.
Source text: as §1
(§4) MIC determination. MICs of β-lactams were determined by the microdilution method in MH broth according to Clinical and Laboratory Standards Institute (CLSI) recommendations (12). Diazabicyclooctane were used at a fixed concentration of 15 μM (4 μg/ml for avibactam). Clavulanate was tested at 4 μg/ml. IPTG (500 μM) was added to the microdilution plates to induce production of the -lactamase. The precultures were grown in BHI broth containing IPTG (500 μM) and kanamycin (50 μg/ml) for plasmid maintenance. Reported MICs are the medians from five biological repeats obtained in two independent experiments.
(In general: Broth dilution looks for growth in wells or tubes with falling amounts of substance.)

The next assay deals with T2, AmpCEclo (Enterobacter cloacae, UniProt P05364).
T2 construct: fragments of the β-lactamase genes encoding soluble enzymes, i.e. devoid of the signal peptides; 6xHis tag followed by TEV cleavage site ([…]) (N); made in house; host or cells: E. coli BL21 (DE3)
T2 sequence (P05364 21-381): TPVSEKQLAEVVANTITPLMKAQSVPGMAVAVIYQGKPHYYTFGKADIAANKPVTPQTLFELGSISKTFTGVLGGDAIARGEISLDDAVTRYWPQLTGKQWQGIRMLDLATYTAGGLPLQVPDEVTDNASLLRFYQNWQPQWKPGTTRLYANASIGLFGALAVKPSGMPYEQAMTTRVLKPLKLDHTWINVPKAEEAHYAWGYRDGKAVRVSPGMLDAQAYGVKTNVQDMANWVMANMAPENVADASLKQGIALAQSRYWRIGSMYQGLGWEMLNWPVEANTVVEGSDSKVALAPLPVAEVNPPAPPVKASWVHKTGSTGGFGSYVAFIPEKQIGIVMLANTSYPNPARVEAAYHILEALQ
Format: biochemical. The conditions noted are these: for Carbamoylation efficacy of β-lactamases by diazabicyclooctanes / De-carbamoylation rate constant k−2 for β-lactamase-diazabicyclooctane adducts: AmpCEclo, 20° C., nitrocefin 100 μM, MES pH 6.4. The method, then: as §2, §3

Assay [2] concerns E. coli Top10 producing KPC-2. Type of assay: cell-based, Escherichia coli. The conditions noted are these: summary of Table 1.
For a further assay, the target named is T3, KPC-2 (Klebsiella pneumoniae, UniProt Q9F663).
T3 construct: fragments of the β-lactamase genes encoding soluble enzymes, i.e. devoid of the signal peptides; 6xHis tag followed by TEV cleavage site ([…]) (N); made in house; host or cells: E. coli BL21 (DE3)
T3 sequence (Q9F663 25-293 limits assumed): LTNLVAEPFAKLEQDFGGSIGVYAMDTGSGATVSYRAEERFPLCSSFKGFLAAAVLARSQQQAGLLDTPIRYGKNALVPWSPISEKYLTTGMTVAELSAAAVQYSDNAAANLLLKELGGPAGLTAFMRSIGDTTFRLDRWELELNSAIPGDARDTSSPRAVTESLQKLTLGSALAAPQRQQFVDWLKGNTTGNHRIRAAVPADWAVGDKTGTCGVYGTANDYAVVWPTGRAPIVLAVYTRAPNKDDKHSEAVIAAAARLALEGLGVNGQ
The assay can be described thus: Kinetic parameters of β-lactamase carbamoylation/de-carbamoylation (nitrocefin), KPC-2. Format: biochemical. The conditions noted are these: for Carbamoylation efficacy of β-lactamases by diazabicyclooctanes / De-carbamoylation rate constant k−2 for β-lactamase-diazabicyclooctane adducts: KPC-2, 20° C., nitrocefin 100 μM, MES pH 6.4; for activity against KPC-2 (in words): summary of Tables 1 and 2.
Source text: as §1, §2, §3

For a further assay, the target named is T4, TEM-1 (Escherichia coli, UniProt P62593).
T4 construct: fragments of the β-lactamase genes encoding soluble enzymes, i.e. devoid of the signal peptides; made in house; host or cells: E. coli BL21 (DE3)
T4 sequence (P62593 24-286 limits assumed): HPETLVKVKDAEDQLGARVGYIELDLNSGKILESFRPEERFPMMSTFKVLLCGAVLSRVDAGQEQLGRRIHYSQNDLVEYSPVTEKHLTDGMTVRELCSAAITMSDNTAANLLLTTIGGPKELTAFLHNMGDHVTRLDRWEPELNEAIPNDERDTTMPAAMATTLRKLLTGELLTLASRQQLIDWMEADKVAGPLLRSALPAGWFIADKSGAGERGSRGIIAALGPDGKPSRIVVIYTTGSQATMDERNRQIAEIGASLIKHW
The assay can be described thus: Kinetic parameters of β-lactamase carbamoylation/de-carbamoylation (nitrocefin), TEM-1. Type of assay: biochemical. The conditions noted are these: 20° C., nitrocefin 100 μM, MES pH 6.4.
Source text: as §1, §2, §3

In the next assay the test system is E. coli Top10. Description: MIC determination by microdilution, E. coli Top10 without β-lactamase (None). Type of assay: cell-based.
Source text: as §1, §4

The target of a further assay is T5, OXA-48 (Klebsiella pneumoniae, UniProt Q6XEC0).
T5 construct: fragments of the β-lactamase genes encoding soluble enzymes, i.e. devoid of the signal peptides; 6xHis tag followed by TEV cleavage site ([…]) (N); made in house; host or cells: E. coli BL21 (DE3)
T5 sequence (Q6XEC0 23-265 limits assumed): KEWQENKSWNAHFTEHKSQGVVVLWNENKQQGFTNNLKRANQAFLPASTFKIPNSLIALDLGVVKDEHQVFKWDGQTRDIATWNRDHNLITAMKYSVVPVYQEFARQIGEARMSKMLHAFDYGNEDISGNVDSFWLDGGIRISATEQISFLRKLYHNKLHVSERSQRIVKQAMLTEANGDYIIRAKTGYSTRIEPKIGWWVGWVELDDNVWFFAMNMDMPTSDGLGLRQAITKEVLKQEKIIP
Description: Kinetic parameters of β-lactamase carbamoylation/de-carbamoylation (nitrocefin), OXA-48. Type of assay: biochemical. The conditions noted are these: for Carbamoylation efficacy of β-lactamases by diazabicyclooctanes / De-carbamoylation rate constant k−2 for β-lactamase-diazabicyclooctane adducts: OXA-48, 20° C., nitrocefin 100 μM, MES pH 6.4, NA = no inhibition at 100 μM.
Source text: as §1, §2, §3

T1 sequence (Q9EXV5 entry or part of it): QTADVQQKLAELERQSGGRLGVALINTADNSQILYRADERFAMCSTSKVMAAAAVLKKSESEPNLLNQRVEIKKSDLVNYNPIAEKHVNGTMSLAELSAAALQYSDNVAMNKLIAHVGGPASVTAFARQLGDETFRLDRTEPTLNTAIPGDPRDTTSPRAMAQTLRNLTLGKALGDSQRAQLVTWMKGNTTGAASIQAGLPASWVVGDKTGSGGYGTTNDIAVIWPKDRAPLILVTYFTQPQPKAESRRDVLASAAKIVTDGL

`O=C(O)CCc1cn(C[C@@H]2CC[C@@H]3CN2C(=O)N3OS(=O)(=O)[O-])nn1.[Na+]` [Compound 1a.i14]: the “Carbamoylation efficacy of β-lactamases by diazabicyclooctanes” value (shortened to “Carbamoylation efficacy of β-lactamases”) on CTX-M-15 was “(1.1 ± 0.1) × 10^2 M^−1 s^−1”; at AmpCEclo, “(9.9 ± 0.9) × 10^1 M^−1 s^−1”; on KPC-2 it was “(7.0 ± 0.8) × 10^1 M^−1 s^−1”; at TEM-1, “(7.2 ± 0.6) × 10^2 M^−1 s^−1”. Also, the “De-carbamoylation rate constant k−2 for β-lactamase-diazabicyclooctane adducts” value at CTX-M-15 is “(3.9 ± 0.8) × 10^−4 s−1”; at AmpCEclo, “(1.6 ± 0.2) × 10^−3 s−1”; at KPC-2 it was “(7.9 ± 1.7) × 10^−4 s−1”; on TEM-1, “(8.2 ± 8.9) × 10^−4 s−1”. The “reduction in the MICs of β-lactams (in words)” value in assay [1] and in assay [2] was “Minor reduction” throughout.

Regarding `C[C@H]1[C@H](NC(=O)/C(=N\OC(C)(C)C(=O)O)c2csc(N)n2)C(=O)N1S(=O)(=O)O` [Aztreonam], the MIC with E. coli Top10 (Escherichia coli, TOP10; read-out: MIC of β-lactam, inhibitor None) turned out to be 0.5 µg/mL.

Take `C[Si](C)(C)c1cn(C[C@@H]2CC[C@@H]3CN2C(=O)N3OS(=O)(=O)O)nn1` [Compound 2a.i]: the “Carbamoylation efficacy of β-lactamases” value on CTX-M-15 is on record as “(4.0 ± 0.1) × 10^2 M^−1 s^−1”; at AmpCEclo it was “(2.4 ± 0.1) × 10^1 M^−1 s^−1”; at KPC-2 it was “(9.7 ± 0.8) × 10^1 M^−1 s^−1”; at TEM-1, “(3.7 ± 0.5) × 10^2 M^−1 s^−1”. Also, the “De-carbamoylation rate constant k−2 for β-lactamase-diazabicyclooctane adducts” value at CTX-M-15 is recorded as “(3.9 ± 0.9) × 10^−4 s−1”; on AmpCEclo, “(1.3 ± 0.9) × 10^−3 s−1”; on KPC-2, “(2.9 ± 0.2) × 10^−3 s−1”; at TEM-1 it was “(2.9 ± 0.9) × 10^−3 s−1”. For the same compound, the “reduction in the MICs of β-lactams (in words)” value in assay [1] and in assay [2] was “Minor reduction” throughout.

Consider `CC1(C)S[C@@H]2[C@H](NC(=O)[C@H](N)c3ccc(O)cc3)C(=O)N2[C@H]1C(=O)O` [Amoxicillin, reference compound], for which the MIC in assay [1] (Escherichia coli, read-out: MIC of β-lactam, inhibitor None) is 2050 µg/mL; in the assay on E. coli Top10 (Escherichia coli, TOP10, read-out: MIC of β-lactam, inhibitor None), 4 µg/mL.

With `O=C1N2C[C@@H](CC[C@H]2Cn2cc(-c3cccnc3)nn2)N1OS(=O)(=O)O` [Compound 1a.i], the “Carbamoylation efficacy of β-lactamases” value on CTX-M-15 is “(1.7 ± 0.4) × 10^3 M^−1 s^−1”; at AmpCEclo it was “(8.5 ± 0.7) × 10^1 M^−1 s^−1”; on KPC-2, “(5.5 ± 0.1) × 10^2 M^−1 s^−1”; on TEM-1, “(1.4 ± 0.1) × 10^3 M^−1 s^−1”. In addition, the “De-carbamoylation rate constant k−2 for β-lactamase-diazabicyclooctane adducts” value at CTX-M-15 is reported as “(6.4 ± 0.8) × 10^−4 s−1”; on AmpCEclo it was “(2.1 ± 0.5) × 10^−3 s−1”; at KPC-2, “(3.0 ± 0.1) × 10^−3 s−1”; on TEM-1 it was “(2.1 ± 0.2) × 10^−3 s−1”. The “activity against CTX-M-15 (in words)” value at CTX-M-15 is “displayed activity”. Besides, the “activity against KPC-2 (in words)” value on KPC-2 is listed as “displayed activity”.

For the compound `O=C1N2C[C@@H](CC[C@H]2Cn2cc(CN3CCOCC3)nn2)N1OS(=O)(=O)[O-].[Na+]` [Compound 1a.i11], the “Carbamoylation efficacy of β-lactamases” value is recorded as “(1.0 ± 0.0) × 10^2 M^−1 s^−1” on CTX-M-15, “(3.1 ± 0.3) × 10^1 M^−1 s^−1” at AmpCEclo, “(1.9 ± 0.2) × 10^2 M^−1 s^−1” on KPC-2 and “(1.2 ± 0.0) × 10^3 M^−1 s^−1” at TEM-1. The “De-carbamoylation rate constant k−2 for β-lactamase-diazabicyclooctane adducts” value was “(4.6 ± 1.1) × 10^−4 s−1” on CTX-M-15, “(8.9 ± 2.1) × 10^−4 s−1” at AmpCEclo, “(3.0 ± 0.4) × 10^−3 s−1” on KPC-2 and “(2.9 ± 0.3) × 10^−3 s−1” on TEM-1. The “activity against CTX-M-15 (in words)” value at CTX-M-15 is “displayed activity”. For the same compound, the “activity against KPC-2 (in words)” value on KPC-2 is given as “displayed activity”.

On to `O=C1N2C[C@@H](CC[C@H]2Cn2cc(-c3ccccc3)nn2)N1OS(=O)(=O)[O-].[Na+]` [Compound 1a.i16], for which the “Carbamoylation efficacy of β-lactamases” value is “(6.9 ± 0.2) × 10^3 M^−1 s^−1” on CTX-M-15; “(2.0 ± 0.0) × 10^2 M^−1 s^−1” at AmpCEclo; “(1.1 ± 0.3) × 10^2 M^−1 s^−1” on OXA-48; “(9.3 ± 0.4) × 10^2 M^−1 s^−1” at KPC-2; “(4.7 ± 0.1) × 10^3 M^−1 s^−1” on TEM-1. Moreover, the “De-carbamoylation rate constant k−2 for β-lactamase-diazabicyclooctane adducts” value is “(3.3 ± 0.5) × 10^−4 s−1” at CTX-M-15; “(2.3 ± 0.1) × 10^−3 s−1” on AmpCEclo; “(1.7 ± 0.1) × 10^−3 s−1” at OXA-48; “(8.8 ± 1.2) × 10^−4 s−1” on KPC-2; “(4.2 ± 0.6) × 10^−4 s−1” at TEM-1. Besides, the “activity against CTX-M-15 (in words)” value at CTX-M-15 is reported as “displayed activity”. Moreover, the “activity against KPC-2 (in words)” value on KPC-2 was “displayed activity”.

In the case of `NC(=O)[C@@H]1CC[C@@H]2CN1C(=O)N2OS(=O)(=O)O` [Avibactam, reference compound], the “Carbamoylation efficacy of β-lactamases” value at CTX-M-15 is listed as “(1.3 ± 0.1) × 10^5 M^−1 s^−1”; on AmpCEclo, “(1.8 ± 0.1) × 10^4 M^−1 s^−1”; at OXA-48 it was “(9.8 ± 0.6) × 10^2 M^−1 s^−1”; on KPC-2, “(2.6 ± 0.1) × 10^4 M^−1 s^−1”; on TEM-1 it was “(8.8 ± 0.2) × 10^4 M^−1 s^−1”. Also, the “De-carbamoylation rate constant k−2 for β-lactamase-diazabicyclooctane adducts” value at CTX-M-15 is listed as “(1.1 ± 0.3) × 10^−3 s−1”; at AmpCEclo it was “(1.8 ± 0.2) × 10^−3 s−1”; at OXA-48, “(2.7 ± 0.1 ) × 10^−3 s−1”; on KPC-2, “(4.0 ± 0.3) × 10^−3 s−1”; on TEM-1 it was “(1.3 ± 0.1) × 10^−3 s−1”. Also, the “inhibition of β-lactamase AmpClo (in words)” value on AmpCEclo was “poorly inhibited”. Also, the “inhibition of β-lactamase OXA-48 (in words)” value at OXA-48 is recorded as “poorly inhibited”.

A word on the MIC: it is the lowest concentration that inhibits growth of the organism.
